What was measured:
in vitro = settings: human
Procedure: (§1) The trypanocidal and cytotoxic activities of the newly synthesized IVR bioconjugates and their conjugation partners were determined for bloodstream forms of T. brucei brucei and human myeloid HL-60 cells in vitro using the resazurin cell viability assay as previously described.
(§2) Test compounds were assayed at 10-fold dilutions ranging from 100 μM to 1 nM in the presence of 0.9% DMSO. Controls were grown in the culture medium containing only 0.9% DMSO. The assays were cultured in an incubator at 37 °C in a humidified atmosphere containing 5% CO2. After 24 h incubation, 20 μL of 0.5 mM resazurin (prepared in sterile PBS) was added, and the cultures were grown for another 48 h. Then, the proliferation of the cells was determined by measuring the absorbance at 570 nm (test wavelength) and 630 nm (reference wavelength) using a microplate reader.

[1] = tested on: bloodstream forms of T. b. brucei (427-221a clone); experiment: microbe, parasite or virus in culture; settings: for selectivity GI50 ratio: GI50(HL-60)/GI50(T. brucei); for GI50: Trypanosoma brucei, 72 h, read-out: T. brucei GI50, bloodstream forms, 72 h total (24 h + 48 h with resazurin), mean ± SD of three independent experiments
Procedure: as §1, §2

[2] = tested on: human promyelocytic leukemia HL-60 cells; experiment: Cytotoxic activity, resazurin cell viability assay; format: cell-based; settings: 72 h total (24 h + 48 h with resazurin), mean ± SD of three independent experiments
Procedure: as §1, §2

[3] = tested on: A549, human lung cancer cell line; experiment: Antiproliferative activity, MTT assay; format: cell-based; settings: for IC50: Homo sapiens, A549, 72 h, MTT, mean ± SD; for A549 SI: SI = IC50 HaCaT/IC50 A549
Procedure: (§3) Additionally, to assess the selectivity of these compounds toward cancer cells, we included an immortalized keratinocyte cell line from adult human skin (HaCaT) in the antiproliferative activity tests. Doxorubicin served as the reference anticancer drug.
(§4) The culture media were enriched with 10% fetal bovine serum (FBS, Sigma-Aldrich, St. Louis, MO, USA), 20 mM HEPES (Biowest, Nuaillé, France), and antibiotics (100 U/mL penicillin and 100 μg/mL streptomycin) obtained from Gibco (Grand Island, NY, USA). The cells were maintained in a humidified incubator at 37 °C with 5% CO2 until they reached 80–90% confluence, after which they were used for further experiments.
(§5) To assess the cytotoxicity, the cells (0.5 × 10^4/well) were plated in 96-well plates and allowed to adhere for 24 h. The MTT (3-(4,5-dimethylthiazol-2-yl)-2,5-diphenyltetrazolium bromide) assay was used to evaluate the cytotoxic effects of IVR bioconjugates on all tested cell lines. After 24 h incubation, cells were exposed to varying concentrations (1 to 100 μM) of the test compounds for 72 h. Following the treatment, the medium was discarded, and a 0.5 mg mL^–1 MTT solution was added to each well and incubation was continued for another 4 h. Mitochondrial enzyme activity facilitated the formation of formazan crystals, which were subsequently dissolved in DMSO-isopropanol (1:1, v/v), producing a violet-colored solution. A 100 μL aliquot of this solution was transferred to the well, and absorbance was recorded at 570 nm using a MultiscanGo spectrophotometer (ThermoFisher Scientific, Carlsbad, CA, USA).
(§6) Cytotoxicity was quantified by comparing the absorbance of the treated cells to that of untreated controls using the formula: [A]/[B] × 100, where [A] represents the absorbance of the treated sample and [B] corresponds to the absorbance of the control sample. A decrease in MTT levels reflects a decrease in cell viability.

[4] = tested on: HCT-116, human primary colon cancer cell line; experiment: Antiproliferative activity, MTT assay; format: cell-based; settings: for IC50: Homo sapiens, HCT-116, 72 h, MTT, mean ± SD; for HCT-116 SI: SI = IC50 HaCaT/IC50 HCT-116
Procedure: as §3, §4, §5, §6

[5] = tested on: MDA-MB-231, human triple-negative breast cancer cell line; experiment: Antiproliferative activity, MTT assay; format: cell-based; settings: for IC50: Homo sapiens, MDA-MB-231, 72 h, MTT, mean ± SD; for MDA-MB-231 SI: SI = IC50 HaCaT/IC50 MDA-MB-231
Procedure: as §3, §4, §5, §6

[6] = tested on: PC3, human metastatic prostate cancer cell line; experiment: Antiproliferative activity, MTT assay; format: cell-based; settings: for IC50: Homo sapiens, 72 h, MTT, mean ± SD; for PC3 SI: SI = IC50 HaCaT/IC50 PC3
Procedure: as §3, §4, §5, §6

[7] = tested on: HaCaT, human immortalized keratinocyte cell line; experiment: Cytotoxicity toward normal cells, MTT assay; format: cell-based; settings: 72 h, mean ± SD
Procedure: as §3, §4, §5, §6

| SMILES | selectivity ratio (in vitro) | selectivity GI50 ratio [1] | antitrypanosomal activity, times stronger than IVR ([1]; relative to IVR GI50) | antitrypanosomal activity, times stronger than artesunate ([1]; relative to artesunate GI50) | GI50 [2] | IC50 [3] | A549 SI [3] | IC50 [4] | HCT-116 SI [4] | IC50 [5] | MDA-MB-231 SI [5] | IC50 [6] | PC3 SI [6] | IC50 [7] | GI50 [1] |
| --- | --- | --- | --- | --- | --- | --- | --- | --- | --- | --- | --- | --- | --- | --- | --- |
| CCC(C)C1OC2(CCC1C)CC1CC(CC=C(C)C(OC(=O)Cn3cc(COC(=O)CCC(=O)OC4OC5OC6(C)CCC7C(C)CCC(C4C)C57OO6)nn3)C(C)C=CC=C3COC4C(O)C(C)=CC(C(=O)O1)C34O)O2 (centres unmarked) [compound 16, Ivermectin–Artesunate Conjugate] | > 256 | 46.2 | 7 times | 9 times | 18 ± 6 µM | 3.8 ± 1.3 µM | >26.3 | 4.5 ± 0.6 µM | >22.2 | 13 ± 4.1 µM | >7.7 | 20.8 ± 7.2 µM | >4.8 | > 100 µM | – |
| Cc1cn([C@H]2C[C@H](N=[N+]=[N-])[C@@H](CO)O2)c(=O)[nH]c1=O [azidothymidine, reference compound] | – | >5.2 | – | – | > 100 µM | 72.1 ± 11.6 µM | >1.4 | 60.2 ± 9.7 µM | >1.7 | 52.2 ± 4.1 µM | >1.9 | 64.3 ± 3.7 µM | >1.6 | > 100 µM | > 10 µM |
| C=C[C@H]1CN2CC[C@H]1C[C@H]2[C@H](OC(=O)O[C@@H]1/C(C)=C/C[C@@H]2C[C@@H](C[C@]3(CC[C@H](C)[C@@H]([C@@H](C)CC)O3)O2)OC(=O)[C@@H]2C=C(C)[C@@H](O)[C@H]3OC/C(=C\C=C\[C@@H]1C)[C@]32O)c1ccnc2ccccc12 [compound 7, Ivermectin–Cinchonidine Conjugate] | – | 20.5 | – | – | 47.2 ± 3.7 µM | 13.6 ± 1.1 µM | 3.7 | 20.1 ± 3.7 µM | 2.5 | 22.4 ± 1.2 µM | 2.2 | 7.2 ± 3.8 µM | 7.0 | 50.3 ± 4.9 µM | 2.3 ± 0.3 µM |

From publication PMC12223813, “Antiproliferative and Trypanocidal Activity of Ivermectin Bioconjugates” (ACS Omega, 2025)
